Source: PMC3914206

Key:
Assay in all cases: KiNativ chemical proteomics profiling in HeLa and PC3 cell lysates
Format in all cases: binding
[1] = target: T1, selected panels of kinases in HeLa and PC3 cell lysates (Homo sapiens, UniProt Q00537); details: 10 uM; PCTAIRE2; peptide DLkPQNLLINEK; proteome HEL; labeling site Lys2
T1 construct: endogenous in cells; host or cells: HeLa and PC3 cell lysates

[2] = target: T2, selected panels of kinases in HeLa and PC3 cell lysates (Homo sapiens, UniProt P50750); details: 10 uM; proteome PC3; peptide DMkAANVLITR; labeling site Lys2
T2 construct: endogenous in cells; host or cells: HeLa and PC3 cell lysates

[3] = target: T3, selected panels of kinases in HeLa and PC3 cell lysates (Homo sapiens, UniProt O14757); details: 10 uM; proteome HEL; peptide DIkPENLLLDER; labeling site Lys2
T3 construct: endogenous in cells; host or cells: HeLa and PC3 cell lysates

[4] = target: T4, selected panels of kinases in HeLa and PC3 cell lysates (Homo sapiens, UniProt O15530); details: 10 uM; PDK1; peptide EYAIkILEK; proteome PC3; labeling site Lys1
T4 construct: endogenous in cells; host or cells: HeLa and PC3 cell lysates

[5] = target: T5, selected panels of kinases in HeLa and PC3 cell lysates (Homo sapiens, UniProt P50613); details: 10 uM; proteome HEL; peptide DLk[…]; labeling site Lys2
T5 construct: endogenous in cells; host or cells: HeLa and PC3 cell lysates

[6] = target: T6, selected panels of kinases in HeLa and PC3 cell lysates (Homo sapiens, UniProt Q96Q15); details: 10 uM; SMG1; peptide […]kTKPK; proteome HEL; labeling site ATP
T6 construct: endogenous in cells; host or cells: HeLa and PC3 cell lysates

[7] = target: T7, selected panels of kinases in HeLa and PC3 cell lysates (Homo sapiens, UniProt P07332); details: 10 uM; proteome HEL; peptide […]kSCR; labeling site Lys1
T7 construct: endogenous in cells; host or cells: HeLa and PC3 cell lysates

[8] = target: T8, selected panels of kinases in HeLa and PC3 cell lysates (Homo sapiens, UniProt Q04912); details: 10 uM; RON; peptide IQCAIkSLSR; proteome PC3; labeling site Lys1
T8 construct: endogenous in cells; host or cells: HeLa and PC3 cell lysates

[9] = target: T9, selected panels of kinases in HeLa and PC3 cell lysates (Homo sapiens, UniProt P29317); details: 10 uM, proteome PC3
T9 construct: endogenous in cells; host or cells: HeLa and PC3 cell lysates

[10] = target: T10, selected panels of kinases in HeLa and PC3 cell lysates (Homo sapiens, UniProt Q8TBX8); details: 10 uM, PIP4K2C, labeling site ATP
T10 construct: endogenous in cells; host or cells: HeLa and PC3 cell lysates
T10 sequence (Q8TBX8 1-421): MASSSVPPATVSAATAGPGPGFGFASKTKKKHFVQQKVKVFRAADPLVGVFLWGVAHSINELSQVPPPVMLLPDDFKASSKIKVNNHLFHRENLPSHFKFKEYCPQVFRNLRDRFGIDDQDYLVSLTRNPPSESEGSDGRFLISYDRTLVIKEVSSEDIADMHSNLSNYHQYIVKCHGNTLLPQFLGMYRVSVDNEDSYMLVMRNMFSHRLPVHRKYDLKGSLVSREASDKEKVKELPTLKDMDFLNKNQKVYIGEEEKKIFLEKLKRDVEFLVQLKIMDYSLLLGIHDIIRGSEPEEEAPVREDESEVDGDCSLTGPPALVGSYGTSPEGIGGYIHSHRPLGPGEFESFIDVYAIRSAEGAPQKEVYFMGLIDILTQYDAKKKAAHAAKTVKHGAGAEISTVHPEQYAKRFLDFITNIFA

[11] = target: T11, selected panels of kinases in HeLa and PC3 cell lysates (Homo sapiens, UniProt P46734); details: 10 uM, peptide DVkPSNVLINK, labeling site Lys2
T11 construct: endogenous in cells; host or cells: HeLa and PC3 cell lysates
T11 sequence (P46734 1-347): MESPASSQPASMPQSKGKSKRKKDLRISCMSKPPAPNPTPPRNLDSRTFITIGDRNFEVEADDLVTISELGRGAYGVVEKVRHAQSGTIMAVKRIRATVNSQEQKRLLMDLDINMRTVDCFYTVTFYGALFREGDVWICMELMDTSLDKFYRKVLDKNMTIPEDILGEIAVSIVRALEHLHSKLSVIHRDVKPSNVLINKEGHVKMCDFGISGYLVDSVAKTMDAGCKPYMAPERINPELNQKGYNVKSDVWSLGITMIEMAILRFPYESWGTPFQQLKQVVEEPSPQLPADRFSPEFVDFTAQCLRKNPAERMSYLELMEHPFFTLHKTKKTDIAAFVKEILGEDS

[12] = target: T12, selected panels of kinases in HeLa and PC3 cell lysates (Homo sapiens, UniProt Q13535); details: 10 uM, peptide FYIMMCkPK, labeling site ATP
T12 construct: endogenous in cells; host or cells: HeLa and PC3 cell lysates

[13] = target: T13, selected panels of kinases in HeLa and PC3 cell lysates (Homo sapiens, UniProt Q9UBS0); details: 10 uM; p70S6Kb; peptide DLk[…]; proteome HEL; labeling site Lys2
T13 construct: endogenous in cells; host or cells: HeLa and PC3 cell lysates

[14] = target: T14, selected panels of kinases in HeLa and PC3 cell lysates (Homo sapiens, UniProt P53350); details: 10 uM; PLK1; peptide DLk[…]; proteome HEL; labeling site Lys2
T14 construct: endogenous in cells; host or cells: HeLa and PC3 cell lysates

[15] = target: T15, selected panels of kinases in HeLa and PC3 cell lysates (Homo sapiens, UniProt Q12851); details: 10 uM; proteome HEL; peptide […]kIVK; labeling site Lys1
T15 construct: endogenous in cells; host or cells: HeLa and PC3 cell lysates

[16] = target: T16, selected panels of kinases in HeLa and PC3 cell lysates (Homo sapiens, UniProt Q96SB4); details: 10 uM; SRPK1; peptide IIHTDIk[…]; proteome PC3; labeling site Lys2
T16 construct: endogenous in cells; host or cells: HeLa and PC3 cell lysates

[17] = target: T17, selected panels of kinases in HeLa and PC3 cell lysates (Homo sapiens, UniProt P54760); details: 10 uM; proteome PC3; peptide […]kIPIR; labeling site Activation Loop
T17 construct: endogenous in cells; host or cells: HeLa and PC3 cell lysates

[18] = target: T18, selected panels of kinases in HeLa and PC3 cell lysates (Homo sapiens, UniProt Q96GX5); details: 10 uM; proteome HEL; peptide LYAVkVVK; labeling site Lys1
T18 construct: endogenous in cells; host or cells: HeLa and PC3 cell lysates

[19] = target: T19, selected panels of kinases in HeLa and PC3 cell lysates (Homo sapiens, UniProt Q15131); details: 10 uM; proteome PC3; peptide DLkVSNLLMTDK; labeling site Lys2
T19 construct: endogenous in cells; host or cells: HeLa and PC3 cell lysates

[20] = peptide EVPVAIkTLK, labeling site Lys1
[21] = peptide […]kIPIR, labeling site Activation Loop
[22] = peptide ELPTLkDMDFLNK, proteome PC3

T12 sequence (Q13535 whole entry): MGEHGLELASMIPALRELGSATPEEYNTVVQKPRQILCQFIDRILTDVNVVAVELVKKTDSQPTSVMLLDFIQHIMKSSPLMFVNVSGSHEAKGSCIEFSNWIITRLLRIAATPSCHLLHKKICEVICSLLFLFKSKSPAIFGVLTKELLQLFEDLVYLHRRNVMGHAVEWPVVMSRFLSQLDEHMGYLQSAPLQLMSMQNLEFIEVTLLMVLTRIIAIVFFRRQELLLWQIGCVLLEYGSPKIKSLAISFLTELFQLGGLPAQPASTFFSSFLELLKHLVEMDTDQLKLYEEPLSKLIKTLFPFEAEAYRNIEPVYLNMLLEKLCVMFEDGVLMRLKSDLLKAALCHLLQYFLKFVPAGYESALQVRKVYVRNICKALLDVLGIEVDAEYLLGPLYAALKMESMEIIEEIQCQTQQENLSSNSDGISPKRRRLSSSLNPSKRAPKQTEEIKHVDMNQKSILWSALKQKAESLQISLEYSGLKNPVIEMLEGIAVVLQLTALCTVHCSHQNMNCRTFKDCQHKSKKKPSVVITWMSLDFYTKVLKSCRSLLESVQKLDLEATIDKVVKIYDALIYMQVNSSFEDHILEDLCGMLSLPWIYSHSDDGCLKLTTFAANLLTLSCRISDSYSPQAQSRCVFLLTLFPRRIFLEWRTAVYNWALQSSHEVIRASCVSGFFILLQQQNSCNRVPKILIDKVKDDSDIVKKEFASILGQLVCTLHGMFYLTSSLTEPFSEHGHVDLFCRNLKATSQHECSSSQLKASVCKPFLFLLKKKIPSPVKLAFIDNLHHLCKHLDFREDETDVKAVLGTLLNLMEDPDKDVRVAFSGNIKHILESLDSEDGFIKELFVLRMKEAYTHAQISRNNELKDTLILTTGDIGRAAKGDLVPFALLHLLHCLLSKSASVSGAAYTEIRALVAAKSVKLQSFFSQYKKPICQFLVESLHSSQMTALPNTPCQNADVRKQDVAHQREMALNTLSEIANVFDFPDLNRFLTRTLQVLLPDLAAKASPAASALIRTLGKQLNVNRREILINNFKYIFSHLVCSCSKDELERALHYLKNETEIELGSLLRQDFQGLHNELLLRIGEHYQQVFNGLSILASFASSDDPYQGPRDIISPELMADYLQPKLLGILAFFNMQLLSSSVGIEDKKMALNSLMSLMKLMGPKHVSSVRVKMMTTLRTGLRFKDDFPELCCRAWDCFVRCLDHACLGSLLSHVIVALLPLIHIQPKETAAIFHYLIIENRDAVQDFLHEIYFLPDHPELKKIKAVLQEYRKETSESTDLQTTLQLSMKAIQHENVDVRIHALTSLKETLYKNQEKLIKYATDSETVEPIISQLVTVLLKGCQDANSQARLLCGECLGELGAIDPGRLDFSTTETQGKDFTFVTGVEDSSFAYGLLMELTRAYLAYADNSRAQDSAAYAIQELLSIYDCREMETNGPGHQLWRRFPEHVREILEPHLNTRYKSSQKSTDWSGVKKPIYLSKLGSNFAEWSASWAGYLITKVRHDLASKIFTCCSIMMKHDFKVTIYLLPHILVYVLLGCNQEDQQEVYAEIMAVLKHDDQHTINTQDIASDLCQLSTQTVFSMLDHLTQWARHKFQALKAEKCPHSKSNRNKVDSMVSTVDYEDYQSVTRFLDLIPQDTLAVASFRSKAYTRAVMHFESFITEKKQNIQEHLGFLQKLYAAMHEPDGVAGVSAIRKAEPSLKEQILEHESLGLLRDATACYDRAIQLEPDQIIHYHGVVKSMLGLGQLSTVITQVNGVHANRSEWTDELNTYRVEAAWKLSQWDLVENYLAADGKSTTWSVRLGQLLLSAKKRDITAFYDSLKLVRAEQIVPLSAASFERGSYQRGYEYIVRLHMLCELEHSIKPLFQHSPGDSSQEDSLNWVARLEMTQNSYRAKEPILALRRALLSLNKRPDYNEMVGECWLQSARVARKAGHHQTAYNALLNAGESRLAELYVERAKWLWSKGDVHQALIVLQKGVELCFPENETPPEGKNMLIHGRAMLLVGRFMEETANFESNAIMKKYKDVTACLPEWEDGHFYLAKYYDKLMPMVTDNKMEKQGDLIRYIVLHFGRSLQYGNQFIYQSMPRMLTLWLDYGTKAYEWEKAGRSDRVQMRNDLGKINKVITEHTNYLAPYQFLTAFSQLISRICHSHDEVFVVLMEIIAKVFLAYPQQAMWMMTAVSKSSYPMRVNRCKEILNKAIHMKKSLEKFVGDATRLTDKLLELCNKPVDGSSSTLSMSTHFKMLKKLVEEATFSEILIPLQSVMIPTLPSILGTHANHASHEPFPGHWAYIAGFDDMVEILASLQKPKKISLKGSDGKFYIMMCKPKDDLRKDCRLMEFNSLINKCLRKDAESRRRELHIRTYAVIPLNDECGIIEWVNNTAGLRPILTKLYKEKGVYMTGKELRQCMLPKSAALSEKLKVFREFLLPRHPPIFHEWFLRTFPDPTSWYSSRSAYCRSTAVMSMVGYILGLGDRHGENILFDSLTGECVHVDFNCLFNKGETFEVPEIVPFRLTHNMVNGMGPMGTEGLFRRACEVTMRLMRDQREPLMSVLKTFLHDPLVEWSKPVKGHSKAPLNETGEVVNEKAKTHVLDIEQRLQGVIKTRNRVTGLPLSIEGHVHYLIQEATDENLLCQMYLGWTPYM
T9 sequence (P29317 24-976): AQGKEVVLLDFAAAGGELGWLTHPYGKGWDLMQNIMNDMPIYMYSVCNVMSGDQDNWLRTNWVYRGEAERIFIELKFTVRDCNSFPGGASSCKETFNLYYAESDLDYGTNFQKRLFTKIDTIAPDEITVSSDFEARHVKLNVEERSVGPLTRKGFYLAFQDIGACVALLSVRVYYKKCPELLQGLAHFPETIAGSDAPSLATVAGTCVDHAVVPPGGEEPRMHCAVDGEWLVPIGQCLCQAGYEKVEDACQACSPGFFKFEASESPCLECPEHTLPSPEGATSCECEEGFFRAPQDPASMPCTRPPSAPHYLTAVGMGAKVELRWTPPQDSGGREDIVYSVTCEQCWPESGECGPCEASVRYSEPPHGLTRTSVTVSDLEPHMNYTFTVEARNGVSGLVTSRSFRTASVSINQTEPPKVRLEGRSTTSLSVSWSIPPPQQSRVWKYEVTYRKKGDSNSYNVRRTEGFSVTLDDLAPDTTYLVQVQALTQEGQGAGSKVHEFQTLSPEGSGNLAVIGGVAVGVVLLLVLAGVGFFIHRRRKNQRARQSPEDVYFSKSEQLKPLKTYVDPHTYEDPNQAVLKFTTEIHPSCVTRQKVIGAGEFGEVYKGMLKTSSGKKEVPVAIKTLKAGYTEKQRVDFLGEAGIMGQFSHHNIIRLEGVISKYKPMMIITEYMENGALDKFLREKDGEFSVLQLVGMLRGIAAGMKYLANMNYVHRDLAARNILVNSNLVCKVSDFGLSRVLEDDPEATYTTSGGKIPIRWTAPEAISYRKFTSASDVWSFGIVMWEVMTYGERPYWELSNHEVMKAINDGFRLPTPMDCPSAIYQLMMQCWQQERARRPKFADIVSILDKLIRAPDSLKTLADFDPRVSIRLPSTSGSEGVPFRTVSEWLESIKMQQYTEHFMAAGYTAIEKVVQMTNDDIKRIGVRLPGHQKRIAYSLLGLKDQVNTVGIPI
T14 sequence (P53350 whole entry): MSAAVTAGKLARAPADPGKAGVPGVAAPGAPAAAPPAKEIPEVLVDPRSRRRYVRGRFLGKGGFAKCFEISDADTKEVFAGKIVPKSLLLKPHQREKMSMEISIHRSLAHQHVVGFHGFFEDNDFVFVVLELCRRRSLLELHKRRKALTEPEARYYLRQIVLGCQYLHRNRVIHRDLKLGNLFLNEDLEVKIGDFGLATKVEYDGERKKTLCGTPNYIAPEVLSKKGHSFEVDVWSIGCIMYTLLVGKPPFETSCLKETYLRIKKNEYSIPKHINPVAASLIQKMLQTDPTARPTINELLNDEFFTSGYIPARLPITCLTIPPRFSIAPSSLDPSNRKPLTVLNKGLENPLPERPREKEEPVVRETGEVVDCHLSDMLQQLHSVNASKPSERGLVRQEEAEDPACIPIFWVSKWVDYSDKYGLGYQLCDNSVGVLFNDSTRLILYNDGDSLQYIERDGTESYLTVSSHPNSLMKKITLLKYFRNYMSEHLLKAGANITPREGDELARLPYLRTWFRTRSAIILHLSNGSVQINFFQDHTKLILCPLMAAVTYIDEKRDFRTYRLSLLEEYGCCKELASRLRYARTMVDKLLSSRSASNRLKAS
T16 sequence (Q96SB4 whole entry): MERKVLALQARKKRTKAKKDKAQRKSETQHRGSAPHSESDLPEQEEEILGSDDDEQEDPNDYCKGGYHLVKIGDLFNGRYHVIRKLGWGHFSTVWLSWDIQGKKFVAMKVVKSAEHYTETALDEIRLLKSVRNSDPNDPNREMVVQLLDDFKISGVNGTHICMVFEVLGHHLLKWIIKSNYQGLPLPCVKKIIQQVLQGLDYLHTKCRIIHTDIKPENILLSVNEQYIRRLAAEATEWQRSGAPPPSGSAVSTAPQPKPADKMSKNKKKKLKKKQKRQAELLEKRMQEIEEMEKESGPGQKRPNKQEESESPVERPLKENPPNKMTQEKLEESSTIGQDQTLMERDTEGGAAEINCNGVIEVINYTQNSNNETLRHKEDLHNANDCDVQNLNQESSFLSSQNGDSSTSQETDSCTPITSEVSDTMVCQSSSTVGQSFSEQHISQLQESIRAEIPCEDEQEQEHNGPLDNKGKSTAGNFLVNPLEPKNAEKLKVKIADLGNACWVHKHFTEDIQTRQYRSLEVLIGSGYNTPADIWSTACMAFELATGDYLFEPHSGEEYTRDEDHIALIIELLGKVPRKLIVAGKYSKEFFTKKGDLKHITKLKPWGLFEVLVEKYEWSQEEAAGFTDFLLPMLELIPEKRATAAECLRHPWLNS

SMILES	% Inhibition PCTAIRE2 [1] [%]	% Inhibiton, CDK9 [2] [%]	% Inhibiton, CHK1 [3] [%]	% Inhibition PDK1 [4] [%]	% Inhibiton, CDK7 [5] [%]	% Inhibition SMG1 [6] [%]	% Inhibiton, FES [7] [%]	% Inhibition RON [8] [%]	% Inhibiton, EphA2 [9, 20] [%]	% Inhibiton, EphA2 [9, 21] [%]	% Inhibition PIP4K2C [10, 22] [%]	% Inhibition PIP4K2C ([10]; peptide TLVIk[…], proteome HEL) [%]	% Inhibition PIP4K2C ([10]; peptide TLVIk[…], proteome PC3) [%]	% Inhibiton, MAP2K3 ([11]; proteome HEL) [%]	% Inhibiton, MAP2K3 ([11]; proteome PC3) [%]	% Inhibiton, ATR ([12]; proteome HEL) [%]	% Inhibiton, ATR ([12]; proteome PC3) [%]	% Inhibition p70S6Kb [13] [%]	% Inhibition PLK1 [14] [%]	% Inhibiton, GCK [15] [%]	further results
CCOc1cc(C(=O)N2CCC(N3CCN(C)CC3)CC2)ccc1Nc1ncc2c(n1)N(C1CCCC1)c1ccccc1C(=O)N2C [Compound 26]	1.4	0.7	13.8	0	22.2	-4.8	4.1	11.1	-1.4	-3	-6.2	4.7	-5.8	10.9	0.8	-9.8	-4.3	-21.4	23.9	6.8	% Inhibition SRPK1 [16]: -25%; % Inhibiton, EphB4 [17]: 17%; % Inhibiton, MASTL [18]: 5.9%; % Inhibiton, CDK10 [19]: 10.4%
COc1cc(C(=O)N2CCC(N3CCN(C)CC3)CC2)ccc1Nc1ncc2c(n1)N(C1CCCC1)c1ccccc1C(=O)N2C [Compound 25, 11-cyclopentyl-2-((2-methoxy-4-(4-(4-methylpiperazin-1-yl)piperidine-1-carbonyl)phenyl)amino)-5-methyl-5H-benzo[e]pyrimido[5,4-b][1,4]diazepin-6(11H)-one]	4.8	10.0	-12.3	-5.4	67.9	-21.0	6.0	-17.5	-0.8	-2.3	21.5	9.5	-0.123	11.8	-7.0	8.5	21.0	8.4	9.6	-2.3	% Inhibition SRPK1 [16]: -29.3%; % Inhibiton, EphB4 [17]: -13.0%; % Inhibiton, MASTL [18]: 14.5%; % Inhibiton, CDK10 [19]: -11.0%
